Key:
[1] = test system: Sarcoma 180 cells; test: Antitumor action, Sarcoma 180 intraperitoneal in ICR mice, life-span and survivors on 40th day (Test Example 1); assay type: in vivo; details: 0.33 mg/mouse i.p. three times
Protocol: Antitumor action of the compounds in Working Examples
ICR mice (a group consisting of five mice) were inoculated intraperitoneally with 1×10^5 Sarcoma 180 cells per mouse, and then given intraperitoneally 0.33 mg/mouse of a compound dissolved in physiological saline, three times, i.e. 1 hour, 1 day and 2 days after inoculation. Reference compound IV, Va or Vb was given to mice under the same conditions. Shown in Table 1 are the life-span prolongation ratio against the untreated control group and the number of survived mice on the 40th day after the initiation of the test.

[2] = test system: Sarcoma 180 cells; test: Antitumor action, Sarcoma 180 subcutaneous in ICR mice, intravenous dosing, tumor proliferation inhibition (Test Example 2); assay type: in vivo; details: 0.3 mg/mouse i.v. 9 times; tumor weight after 21 days
Protocol: (§1) Antitumor action of the compound of Working Example 8
ICR mice (a group consisting of 5 mice) were inoculated subcutaneously with 1×10^6 Sarcoma 180 cells per mouse, and given intravenously 0.03 mg/mouse or 0.3 mg/mouse of the compound of Working Example 8 dissolved in physiological saline 9 times in total, i.e. 8, 9, 10, 13, 14, 15, 16, 17, and 20 days after inoculation. The Reference compound (IV), 0.3 mg/mouse, was given under the same conditions. After 21 days, the tumor tissue was extirpated and the tumor weight was weighed. Shown in Table 2 is tumor proliferation inhibition ratio as compared with the untreated control group.

[3] = test system: mouse mammary carcinoma cells MM46; test: Antitumor action, MM46 intraperitoneal in C3H mice, life-span and survivors on 40th day (Test Example 3); assay type: in vivo; details: 0.25 mg/mouse once a day for 4 days
Protocol: as §1
C3H mice (a group consisting of 5 mice) were inoculated intraperitoneally with 1×10^4 mouse mammary carcinoma cells MM46 per mouse, and given 0.25 mg/mouse of the compound of Working Example 8 dissolved in physiological saline once a day for 4 consecutive days starting from the second day after the inoculation. The Reference compound (IV) was given under the same conditions. Shown in Table 3 are the life-span prolongation ratio against the untreated control group and the number of survived mice on the 40th day after initiation of the test.

[4] = due to PAF-related structure; cited from earlier work
[5] = test system: Platelet aggregation caused by PAF; test: Inhibition of PAF-induced platelet aggregation in rabbit PRP (Test Example 5); assay type: cell-based; details: Oryctolagus cuniculus, PAF 1×10^-8 M, read-out: inhibition ratio (%) of PAF-induced platelet aggregation
Protocol: Blood was collected directly from a male rabbit, using a syringe containing 3.15% of citric acid (at a ratio of 1 part to 9 parts of blood) as an anticoagulant, and centrifuged at 800 rpm for 10 minutes at room temperature to obtain platelet rich plasma (PRP). The remaining blood was centrifuged further at 3000 rpm for 10 minutes to obtain platelet poor plasma (PPP) as the supernatant. By dilution of PRP with PPP, the platelet count was adjusted to about 500,000 cells/μl. After 250 μl of the resulting PRP was stirred at 37° C. for 2 minutes, a certain amount of the test compound was added, and the mixture was stirred for further 2 minutes, and then 1×10^-8 M of PAF was added. Platelet aggregation was measured by using a platelet aggregometer (manufactured by Rika Denki Co. in Japan). The aggregation-inhibiting activity of a test compound was determined from the inhibition ratio against maximal transmittance (maximal aggregation ratio) caused by PAF in the control PRP.

[6] = unlike PAF; cited from earlier work

CCCCCCCCCCCCCCCCCCOCC(COP(=O)([O-])OCC[N+](C)(C)C)OC (stereo not shown) [Compound IV, reference compound]
No. of survivors/No. of mice tested [1]: 0/5 | Life-span prolongation ratio (T/C, %) ([1]; only related to mice found dead): 162% | Inhibition ratio (1-T/C) (%) [2]: 58% | No. of survivors/No. of mice tested [3]: 0/5 | Life-span prolongation ratio (T/C, %) ([3]; survivors not included): 155% | PAF-like actions [4]: serotonin liberation, bronchial constriction, platelet aggregation, and blood pressure lowering | inhibition at 30 µM ([5]; 3 × 10^-5 M): 0% | inhibition at 3 µM ([5]; 3 × 10^-6 M): 0% | inhibition at 0.3 µM ([5]; 3 × 10^-7 M): 0% | antitumor actions [6]: antitumor actions

From patent US4889953A, “Glycerol derivatives, their production and use” (Takeda Chemical Industries, Ltd., priority 1986, dated 1989)
